Test results reported in patent US12043599B2, “Herbicidal compounds” (SYNGENTA PARTICIPATIONS AG, priority 2018, dated 2024).

What was measured:
Assay type in all cases: in vivo
Conditions in all cases: 250 g/h, evaluated after 13 days
[1] = test system: Setaria faberi (SETFA); experiment: Pre-emergence herbicidal glasshouse test, percentage damage
Method in brief: (§1)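 A single spray at 250 g/h was given either to soil one day after sowing or to seedlings after eight days' growth. Vehicle was acetone/water (50:50) with 0.5% Tween 20. Thirteen days on, damage was rated in 20% bands, 1 (0-19%) to 5 (80-100%).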

[2] = test system: Alopecurus myosuroides (ALOMY); experiment: as above
Method in brief: as §1

[3] = test system: Lolium perenne (LOLPE); experiment: as above
Method in brief: as §1

[4] = test system: Echinochloa crus-galli (ECHCG); experiment: as above
Method in brief: as §1

[5] = test system: Avena fatua (AVEFA); experiment: as above
Method in brief: as §1

[6] = test system: Setaria faberi (SETFA); experiment: Post-emergence herbicidal glasshouse test, percentage damage
Method in brief: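 Wheat, barley and Setaria faberi were sprayed post-emergence after 8 days' growth (24/16 °C, 14 h light, 65% humidity) with compound in acetone/water (50:50) containing 0.5% Tween 20, at the indicated rates. On wheat, compounds were also applied with cloquintocet-mexyl at 50 g/ha. Damage was scored after 13 days on a five-point scale (5=80-100% to 1=0-19%).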

[7] = test system: Alopecurus myosuroides (ALOMY); experiment: as above
Method in brief: as §1

[8] = test system: Lolium perenne (LOLPE); experiment: as above
Method in brief: as §1

[9] = test system: Echinochloa crus-galli (ECHCG); experiment: as above
Method in brief: as §1

[10] = test system: Avena fatua (AVEFA); experiment: as above
Method in brief: as §1

Compound | SETFA PRE percentage damage (five point scale) [1] | ALOMY PRE percentage damage (five point scale) [2] | LOLPE PRE percentage damage (five point scale) [3] | ECHCG PRE percentage damage (five point scale) [4] | AVEFA PRE percentage damage (five point scale) [5] | SETFA POST percentage damage (five point scale) [6] | ALOMY POST percentage damage (five point scale) [7] | LOLPE POST percentage damage (five point scale) [8] | ECHCG POST percentage damage (five point scale) [9] | AVEFA POST percentage damage (five point scale) [10]
CC#Cc1cc(C)c(C2=C(OC(=O)OC)CC3(CCN(C(=O)COCC)CC3)CC2=O)c(C)c1 [Compound P51] | 5 (5=80-100%) | 5 (5=80-100%) | 5 (5=80-100%) | 5 (5=80-100%) | 5 (5=80-100%) | 5 (5=80-100%) | 5 (5=80-100%) | 5 (5=80-100%) | 5 (5=80-100%) | 5 (5=80-100%)
CC#Cc1cc(C)c(C2=C(OC(=O)OC)CC3(CCN(S(=O)(=O)C(F)(F)F)CC3)CC2=O)c(C)c1 [Compound P11] | 5 (5=80-100%) | 5 (5=80-100%) | 5 (5=80-100%) | 5 (5=80-100%) | 3 (3=40-59%) | 5 (5=80-100%) | 5 (5=80-100%) | 4 (4=60-79%) | 5 (5=80-100%) | 5 (5=80-100%)
CC#Cc1cc(C)c(C2=C(OC(=O)OC)CC3(CCN(C(=O)NC(C)(C)C)CC3)CC2=O)c(C)c1 [Compound P13] | 5 (5=80-100%) | 5 (5=80-100%) | 5 (5=80-100%) | 5 (5=80-100%) | 5 (5=80-100%) | 5 (5=80-100%) | 5 (5=80-100%) | 5 (5=80-100%) | 5 (5=80-100%) | 5 (5=80-100%)
CC#Cc1cc(C)c(C2C(=O)CC3(CCN(C(=O)c4cnccc4C#N)CC3)CC2=O)c(C)c1 [Compound A192] | 5 (5=80-100%) | 3 (3=40-59%) | 5 (5=80-100%) | 5 (5=80-100%) | 3 (3=40-59%) | 5 (5=80-100%) | 5 (5=80-100%) | 5 (5=80-100%) | 5 (5=80-100%) | 5 (5=80-100%)
CC#Cc1cc(C)c(C2=C(OC(=O)C3CCC3)CC3(CCN(C(=O)C4CCC4)CC3)CC2=O)c(C)c1 [Compound P3] | 5 (5=80-100%) | 5 (5=80-100%) | 5 (5=80-100%) | 5 (5=80-100%) | 5 (5=80-100%) | 5 (5=80-100%) | 5 (5=80-100%) | 5 (5=80-100%) | 5 (5=80-100%) | 5 (5=80-100%)
CC#Cc1cc(C)c(C2=C(OC(=O)C(C)OC)CC3(CCN(C(=O)C(C)OC)CC3)CC2=O)c(C)c1 (centres unmarked) [Compound P6] | 5 (5=80-100%) | 5 (5=80-100%) | 5 (5=80-100%) | 5 (5=80-100%) | 5 (5=80-100%) | 5 (5=80-100%) | 5 (5=80-100%) | 5 (5=80-100%) | 5 (5=80-100%) | 5 (5=80-100%)
CC#Cc1cc(C)c(C2C(=O)CC3(CCN(S(=O)(=O)c4ccccn4)CC3)CC2=O)c(C)c1 [Compound A70] | 5 (5=80-100%) | 5 (5=80-100%) | 5 (5=80-100%) | 5 (5=80-100%) | 5 (5=80-100%) | 5 (5=80-100%) | 5 (5=80-100%) | 5 (5=80-100%) | 5 (5=80-100%) | 5 (5=80-100%)
CC#Cc1cc(C)c(C2C(=O)CC3(CCN(c4ncccn4)CC3)CC2=O)c(C)c1 [Compound A37] | 5 (5=80-100%) | 5 (5=80-100%) | 5 (5=80-100%) | 5 (5=80-100%) | 4 (4=60-79%) | 5 (5=80-100%) | 5 (5=80-100%) | 5 (5=80-100%) | 5 (5=80-100%) | 5 (5=80-100%)
CC#Cc1cc(C)c(C2C(=O)CC3(CCN(C(=O)C4=COCCC4)CC3)CC2=O)c(C)c1 [Compound A175] | 5 (5=80-100%) | 5 (5=80-100%) | 5 (5=80-100%) | 5 (5=80-100%) | 4 (4=60-79%) | 5 (5=80-100%) | 5 (5=80-100%) | 5 (5=80-100%) | 5 (5=80-100%) | 5 (5=80-100%)
CC#Cc1cc(C)c(C2C(=O)CC3(CCN(C(=O)CCC#N)CC3)CC2=O)c(C)c1 [Compound A198, 4-[9-(2,6-dimethyl-4-prop-1-ynyl-phenyl)-8,10-dioxo-3-azaspiro[5.5]undecan-3-yl]-4-oxo-butanenitrile] | 5 (5=80-100%) | 5 (5=80-100%) | 5 (5=80-100%) | 5 (5=80-100%) | 4 (4=60-79%) | 5 (5=80-100%) | 5 (5=80-100%) | 5 (5=80-100%) | 5 (5=80-100%) | 5 (5=80-100%)
CC#Cc1cc(C)c(C2C(=O)CC3(CCN(C(=O)Cc4ccncn4)CC3)CC2=O)c(C)c1 [Compound A101] | 5 (5=80-100%) | 4 (4=60-79%) | 5 (5=80-100%) | 5 (5=80-100%) | 4 (4=60-79%) | 5 (5=80-100%) | 5 (5=80-100%) | 5 (5=80-100%) | 5 (5=80-100%) | 5 (5=80-100%)
